Measured values from the NIST ThermoML archive (doi:10.1021/je900347f).
Numbers after ± are expanded uncertainties.

Assay: excess molar enthalpy (molar enthalpy of mixing); xn = mol fraction of the nth substance listed
Details: 308.15 K, 101 kPa, Liquid, Flow calorimetry

Compound: C1CCNCC1 [piperidine] + C1CCCCC1
- excess molar enthalpy (x2 = 0.101): 0.0617 ± 0.00263 kcal/mol
- excess molar enthalpy (x2 = 0.201): 0.114 ± 0.00287 kcal/mol
- excess molar enthalpy (x2 = 0.3): 0.155 ± 0.00287 kcal/mol
- excess molar enthalpy (x2 = 0.4): 0.186 ± 0.00287 kcal/mol
- excess molar enthalpy (x2 = 0.499): 0.202 ± 0.00287 kcal/mol
- excess molar enthalpy (x2 = 0.601): 0.202 ± 0.00287 kcal/mol
- excess molar enthalpy (x2 = 0.679): 0.19 ± 0.00287 kcal/mol
- excess molar enthalpy (x2 = 0.801): 0.152 ± 0.00287 kcal/mol
- excess molar enthalpy (x2 = 0.901): 0.0935 ± 0.00287 kcal/mol

Compound: C1CCNCC1 [piperidine] + C1CCOCC1
- excess molar enthalpy (x2 = 0.102): 0.0249 ± 0.00239 kcal/mol
- excess molar enthalpy (x2 = 0.196): 0.0435 ± 0.00239 kcal/mol
- excess molar enthalpy (x2 = 0.301): 0.0581 ± 0.00239 kcal/mol
- excess molar enthalpy (x2 = 0.397): 0.0667 ± 0.00239 kcal/mol
- excess molar enthalpy (x2 = 0.497): 0.0698 ± 0.00239 kcal/mol
- excess molar enthalpy (x2 = 0.598): 0.0679 ± 0.00239 kcal/mol
- excess molar enthalpy (x2 = 0.7): 0.06 ± 0.00239 kcal/mol
- excess molar enthalpy (x2 = 0.801): 0.0464 ± 0.00239 kcal/mol
- excess molar enthalpy (x2 = 0.893): 0.0277 ± 0.00239 kcal/mol

Compound: C1CCOCC1 [tetrahydropyran] + C1CCCCC1
- excess molar enthalpy (x2 = 0.101): 0.0375 ± 0.00263 kcal/mol
- excess molar enthalpy (x2 = 0.2): 0.0703 ± 0.00263 kcal/mol
- excess molar enthalpy (x2 = 0.3): 0.0985 ± 0.00263 kcal/mol
- excess molar enthalpy (x2 = 0.4): 0.117 ± 0.00263 kcal/mol
- excess molar enthalpy (x2 = 0.499): 0.126 ± 0.00263 kcal/mol
- excess molar enthalpy (x2 = 0.606): 0.124 ± 0.00263 kcal/mol
- excess molar enthalpy (x2 = 0.699): 0.11 ± 0.00263 kcal/mol
- excess molar enthalpy (x2 = 0.8): 0.0848 ± 0.00263 kcal/mol
- excess molar enthalpy (x2 = 0.9): 0.0473 ± 0.00263 kcal/mol
